# System: Spermatozoa
# Test: Spermicidal activity in rat spermatozoa assessed as […]
# Assay type: functional
# Conditions: read-out: MEC
row,Structure (SMILES),minimal effective concentration [µg/mL]
1,O=C1Nc2ccccc2C1(c1c[nH]c2ccc(Br)cc12)c1c[nH]c2ccc(Br)cc12,3180
2,Cc1c(C2(c3[nH]c4ccccc4c3C)C(=O)Nc3ccccc32)[nH]c2ccccc12,1000
3,O=C1Nc2ccccc2C1(c1ccc[nH]1)c1ccc[nH]1,3150
4,Cc1[nH]c2ccccc2c1C1(c2c(C)[nH]c3ccccc23)C(=O)Nc2ccccc21,2820
5,O=C1Nc2ccccc2C1(c1c[nH]c2ccccc12)c1c[nH]c2ccccc12,2400
6,Cn1cc(C2(c3cn(C)c4ccccc34)C(=O)Nc3ccccc32)c2ccccc21,2360
7,CCCCCCCCCc1ccc(OCCOCCOCCOCCOCCOCCOCCOCCOCCO)cc1 [NONOXYNOL 9],500
8,COc1ccc2[nH]cc(C3(c4c[nH]c5ccc(OC)cc45)C(=O)Nc4ccccc43)c2c1,340
9,O=C(O)c1[nH]c2ccccc2c1C1(c2c(C(=O)O)[nH]c3ccccc23)C(=O)Nc2ccccc21,1110
10,O=C(O)Cc1c(C2(c3[nH]c4ccccc4c3CC(=O)O)C(=O)Nc3ccccc32)[nH]c2ccccc12,530

# System: not listed separately
# Test: Toxicity against rabbit erythrocytes assessed as hemolytic index
# Assay type: cell-based, Oryctolagus cuniculus
# Conditions: erythrocyte
row,Structure (SMILES),Activity [mg/mL]
1,COc1ccc2[nH]cc(C3(c4c[nH]c5ccc(OC)cc45)C(=O)Nc4ccccc43)c2c1,3.3
